Measured values taken from patent US6806269B1, “2-Amino-benzoxazinones for the treatment of herpes simplex virus” (G. D. Searle & Cop, priority 1999, dated 2004).
Where two headings read alike, the source gives them in different places.

How the values were obtained:
[1] = target: T1, HSV-1 protease (assemblin) (Human herpesvirus 1, UniProt P10210); test: Enzymatic assay for HSV-1 protease (assemblin) inhibition (FP assay / HPLC assay); type: biochemical
T1 construct: encoding residues 1-288 of HSV-1 UL26 open reading frame and 32 heterologous amino acid; 6xHis (N); made in house
Description: Enzymatic Assay for HSV-1 Protease (Assemblin) Inhibition
Assemblin protease activity was determined using fluorescence polarization (FP). The fluorescent substrate was biotin-gamma-aminobutyrate -[…]-DTAF, based on the HSV-1release cleavage site. […] A change in molecular size of fluorescent substrate molecule, which was increased using avidin as a reaction stop reagent, allowed cleavage to be measured by FP. Potential protease inhibitors were dissolved in DMF and then diluted 5-fold in assay buffer. […] The enzyme was diluted to 21.3 ug/mL in assay buffer (1M NaCitrate, 50 mM NaPhosphate, pH 7.4, 100mM NaCl, 20% glycerol, 2 mM TECP) and 48.5 uL were added to each well. Following a 30 minute incubation at room temperature, 10 uL of 62.5 ug/mL substrate were added. After about 90 minute incubation at room temperature, 50 uL of 2 mg/mL avidin in phosphate buffer (50 mM Naphosphate, 100 mM NaCl, pH 7.4) were added to each well. The plates were read by a fluorescence polarization plate reader. Inhibitor potency was determined by comparison with incubations lacking inhibitor.
Assays were performed with the peptide substrate H-His-Thr-Tyr-Leu-Gln-Ala-Ser-Glu-Lys-Phe-Lys-Met-Trp-Gly-NH2 (Bachem). This substrate is a HSV-1-amide UL26 Open Reading Frame (242-255) and is derived from the release site of HSV-1 protease. HSV-1protease cleaves between alanine and serine. The product […] was quantified on HPLC using fluorescence detection of tryptophan residue. Enzyme was diluted to 4.3 ug/mL in assay buffer (1 M NaCitrate, 50 mM NaPhosphate, pH 7.3, 100 mM NaCl, 20% glycerol, 2 mM TCEP) and 48.5 uL were added to the tubes. Potential protease inhibitors were dissolved in DMF and then diluted 10-fold in assay buffer. 6.5 uL of inhibitor solution were added to each tube. Following a 30-minute incubation at room temperature, 10 uL of substrate in phosphate buffer (50 mM Naphosphate, 100 mM NaCl, pH 7.4) were added to all tubes. The final concentration of the substrate in the reaction mixtures was 10 uM. After a 15-minute incubation at room temperature, assays were quenched using 50 uL of 50% TCA. Inhibitor potency was determined by comparison with incubations lacking inhibitor, which under these conditions gave about 20% cleavage of substrate.
Recombinant HSV-1 Protease
HSV-1 protease was purified from baculovirus expressing a DNA construction encoding residues 1-288 of HSV-1 UL26 open reading frame and 32 heterologous amino acid. The construction also encoded six additional histidine residues at the amino terminus of the protease. These additional histidine residues provided an affinity ligand by which the protein was purified using Ni-NTA agarose gel (Qiagen). The purified protease was stored in stock solution (20 mM HEPES buffer, pH 8.5, containing 20% (v/v) glycerol). This stock was diluted with assay buffer to adequate concentration of enzymatic assay.
A specific substrate was synthesized based on the cleavage specificity of HSV-1 protease at the “release site” of the assembly protein (DiIanni, C. L., et al., J. Biol. Chem. 268, 2048, (1993)). The assembly protein release site has the sequence, HTYLQA*SEKFKMWG. The substrate used was biotin-gamma -aminobutyrate-HTYLQA*SERFRIK-DTAF which was prepared by standard peptide synthetic methods such as that described in Bodansky and Bodansky, “The Practice of Peptide Synthesis” (1984), and was stored as a stock solution at 2.5 mg/mL in DMF. This was diluted to 62.5 ug/mL with phosphate buffer (50 mM Naphosphate, […], pH 7.4) just before use.
The substrate was HSV-1-amide UL 26 Open Reading Frame (242-255), obtained from Bachem (Product No. M-2160).
An assay buffer (1 M NaCitrate, 50 mM NaPhosphate, pH 7.4, 100 mM NaCl, 20% glycerol, 2 mM TCEP) was used to dilute stock solutions of enzyme and inhibitors.

HSV-1 = test: Antiviral assay: plaque reduction assay, HSV-1 in vero cells; type: cell-based, HSV-1 (vero cells, African green monkey kidney cell); conditions: Human alphaherpesvirus 1, Vero, 72 h, read-out: ANTIVIRUS EC50
Source text: These complimentary assays tested the ability of a compound to inhibit the production of new virus and the toxicity of the compound to the host cells. It was important that both assays be performed simultaneously in order to compare the results directly since toxicity may indirectly reduce viral replication.
The antiviral assay was estimated by plaque reduction assay performed by following methods. 1×10^5 of vero cells (African green monkey kidney cell) in 48-well plates were over-night cultured and the medium of this culture was replaced with 200 μl of 2% FBS DMEM containing 2× the desired final cordon of test compounds or no compound as control. The cultures were added 50 μl of 2% FBS DMEM containing with about 50 plaque forming units of HSV-1and next 250 μl of 2% FBS DMEM containing 1% methylcellulose. These infected cultures were incubated at 37° C., 5% CO2 for 3 days until plaques was visible. The cells were fixed and stained simultaneously with 0.025% crystalviolet in 5% formalin solution and plaque were counted. The concentration of test compound which conferred 50% inhibition of plaque formation compared to no compound control was interpolated from the observed data and defined as IC50.

[2] = target: T2, Human leukocyte elastase (HLE) (Homo sapiens, UniProt P08246); test: Human leukocyte elastase assay; type: biochemical; conditions: 50 μM compound; 30 minutes pre-incubation
T2 construct: purchased CALBIOCHEM
T2 sequence (P08246 30-267): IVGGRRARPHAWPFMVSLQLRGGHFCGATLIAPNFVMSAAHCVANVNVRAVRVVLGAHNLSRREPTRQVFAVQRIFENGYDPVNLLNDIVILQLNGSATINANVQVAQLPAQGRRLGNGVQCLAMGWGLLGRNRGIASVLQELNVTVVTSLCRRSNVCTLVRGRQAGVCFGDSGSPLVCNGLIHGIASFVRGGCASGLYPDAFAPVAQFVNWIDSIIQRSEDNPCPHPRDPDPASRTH
Description: Human Leukocyte Elastase Assay
Human leukocyte elastase (HLE) (CALBIOCHEM) was dissolved in saline at 1 mg/ml and further diluted 1/10 in assay buffer (0.2 M Tris, pH 8.0) before use.
0.75 μl of test compound in DMF (or DMF alone), 50 μl of assay buffer and 50 μl of enzyme were added to 96 well plate, mixed and pre-incubated for 30 minutes at ambient temperature. Reaction was initiated by addition of 50 μl of 2.5 mM methoxysuccinyl-Ala-Ala-Pro-Val-p-nitroanilide (Sigma; 25 mM in DMSO diluted 1/10 in assay buffer before use). The increase in absorbance at 405 nm was monitored for 3 min. with BIO-RAD model 3550 microplate reader.

[3] = target: T3, Bovine pancreas α-chymotripsin (Bos taurus, UniProt P00766); test: Chymotripsin assay; type: biochemical; conditions: 50 μM compound; 30 minutes pre-incubation; read-out: INHIBITION AT 50 μM CHYMOTRYPSIN (%)
T3 construct: purchased Sigma type II; host or cells: bovine pancreas
Description: The chymotripsin assay was modified from the method of Delmar, et al. (Anal. Biochem. 99, 316-320 (1979)). Bovine pancreas α-chymotripsin(type II, Sigma) was dissolved in 0.001 N HCl at 1 mg/ml and further diluted 1/1000 in assay buffer (0.1 M Tris, pH 7.8 containing 0.1 M CaCl2) before use. 0.75 μl of test compound in DMF (or DMF alone), 50 μl of assay buffer and 50 μl of enzyme were added to 96 wells plates, mixed and pre-incubated for 30 minutes at ambient temperature. Reaction was initiated by addition of 50 μl of 0.2 mM N-succinyl-Ala-Ala-Pro-Phe-p-nitroanilide (Sigma; 2 mM in DMSO diluted 1/10 in assay buffer before use). The increase in absorbance at 405 nm was monitored for 3 minutes with BIO-RAD model 3550 microplate-reader.

[4] = recombinant HSV-1 protease, 30 minute pre-incubation at room temperature, FP or HPLC format not stated, read-out: ENZYME IC50

T1 sequence (P10210 1-288): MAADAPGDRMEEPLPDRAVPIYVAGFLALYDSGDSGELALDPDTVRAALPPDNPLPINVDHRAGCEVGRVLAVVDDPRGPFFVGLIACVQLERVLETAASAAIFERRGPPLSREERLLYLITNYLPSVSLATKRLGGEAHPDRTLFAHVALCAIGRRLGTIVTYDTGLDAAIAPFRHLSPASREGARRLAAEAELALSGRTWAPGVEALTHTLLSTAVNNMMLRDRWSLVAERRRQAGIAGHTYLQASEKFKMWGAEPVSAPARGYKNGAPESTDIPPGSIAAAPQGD

SMILES	IC50 [1, 4] [µM]	EC50 (HSV-1) [µM]	inhibition at 50 µM [2] [%]	inhibition at 50 µM [3] [%]	IC50 [1] [µM]
CCN(CC)c1nc2cccc(C)c2c(=O)o1 [CC1, reference compound]	20				
Cc1cccc2nc(N(C)Cc3ccccc3)oc(=O)c12 [CC2, reference compound]	3.2	7.5	101	101	
Cc1cccc2nc(N(C)Cc3ccccn3)oc(=O)c12 [CC3, reference compound]	3.2	48.9	100	100	
Cc1c(Br)ccc2nc(N(C)Cc3ccccc3)oc(=O)c12 [CC4, reference compound]		15	98	102	
Cc1cccc2nc(N3CCN(C)CC3)oc(=O)c12 [CC5, reference compound]		> 50	100	98	28
Cc1cccc2nc(N(C)CCN3CCOCC3)oc(=O)c12 [CC6, reference compound]	11.8	> 50	99	97	
Cc1c(NC(=O)OC(C)(C)C)ccc2nc(N(C)Cc3ccccc3)oc(=O)c12 [Compound 1, 6-[[(1,1-Dimethylethoxy)carbonyl]amino]-5-methyl-2-[methyl(phenylmethyl)amino]-4H-3,1-benzoxazin-4-one]	0.6	1.1	32	13	
Cc1c(NC(=O)c2ccccc2)ccc2nc(N(C)Cc3ccccc3)oc(=O)c12 [Compound 2, 6-(benzoylamino)-5-methyl-2-[methyl(phenylmethyl)amino]-4H-3,1-benzoxazin-4-one]	0.7	4.6	26	7	
COc1ccc(CN(C)c2nc3ccc(NC(=O)OC(C)(C)C)c(C)c3c(=O)o2)cc1 [Compound 3, 6-[[(1,1-Dimethylethoxy)carbonyl]amino]-5-methyl-2-[methyl[(4-methoxyphenyl)methyl]amino]4H-3,1-benzoxazin-4-one]	0.6	0.16	0	0	
Cc1c(NC(=O)OC(C)(C)C)ccc2nc(N(C)Cc3ccc(N(C)C)cc3)oc(=O)c12 [Compound 4, 6-[[(1,1-Dimethylethoxy)carbonyl]amino]-5-methyl-2-[[[4-(dimethylamino)phenyl]methyl]methylamino]-4H-3,1-benzoxazin-4-one]	1.3	0.05	0	0	
Cc1c(NC(=O)OC(C)(C)C)ccc2nc(N(C)CCc3c[nH]c4ccccc34)oc(=O)c12 [Compound 5, 6-[[(1-Dimethylethoxy)carbonyl]amino]-5-methyl-2-[methyl[2-(3-indolyl)ethyl]amino]-4H-3,1-benzoxazin-4-one]	3.5	3.2	0	13.1	
Cc1c(NC(=O)OC(C)(C)C)ccc2nc(N3CCOCC3)oc(=O)c12 [Compound 6, 6-[[(1,1-Dimethylethoxy)carbonyl]amino]-5-methyl-2-(4-morpholyl)-4H-3,1-benzoxazin-4-one]	3.7	2.9	0	0	
C=CCN(C)c1nc2ccc(NC(=O)OC(C)(C)C)c(C)c2c(=O)o1 [Compound 7, 6-[[(1,1-Dimethylethoxy)carbonyl]amino]-5-methyl-2-[allyl(methyl)amino]-4H-3,1-benzoxazin-4-one]	3.4	4.1	0	6.9	
Cc1c(NC(=O)OC(C)(C)C)ccc2nc(N3CC=CCC3)oc(=O)c12 [Compound 8, 6-[[(1,1-Dimethylethoxy)carbonyl]amino]-5-methyl-2-[1-(1,2,3,6-tetrahydro-pyridyl)]-4H-3,1-benzoxazin-4-one]	5	3.3	0	0	
Cc1c(NC(=O)OC(C)(C)C)ccc2nc(N(C)C(C)C)oc(=O)c12 [Compound 10, 6-[[(1,1-Dimethylethoxy)carbonyl]amino]-5-methyl-2-[isopropyl(methyl)amino]-4H-3,1-benzoxazin-4-one]	7.8	3.3	0	0	
Cc1c(NC(=O)OC(C)(C)C)ccc2nc(N3CCCC4CCCCC43)oc(=O)c12 (stereo not drawn) [Compound 11, 6-[[(1,1-Dimethylethoxy)carbonyl]amino]-5-methyl-2-(decahydroquinolyl)-4H-3,1benzoxazin-4-one]	5.5	2.8	0	0	
